Experimental data as given in US7211587B2, “Quinoline derivatives and quinazoline derivatives having azolyl group” (Kirin Beer Kabushiki Kaisha, priority 2001, dated 2007).
Where a name gives a salt, the structure may show the parent alone.

How the values were obtained:
[1] = system: Human pulmonary carcinoma cells (LC-6); experiment: Antitumor activity against human pulmonary carcinoma cells (LC-6) transplanted into nude mice; assay type: in vivo; conditions: LC-6 in nude mice, oral 20 mg/kg once a day for 9 days; for inhibition in vivo at 20 mg/kg: Mus musculus, 216 h, read-out: TGIR (tumor growth inhibition rate)
Procedure: Human pulmonary carcinoma cells (LC-6) (obtained from Central Laboratories for Experimental Animals) were transplanted into nude mice. When the tumor volume became about 100 mm^3, the mice were grouped so that each group consisted of four mice and the average tumor volume was even among the groups. A test compound was orally administered at a dose of 20 mg/kg to the test groups every day once a day for 9 days, while only a vehicle was administered to a control group in the manner as in the test groups. The tumor growth inhibition rate (TGIR) was calculated as follows: The tumor growth inhibition rate (TGIR)=(1−TX/CX)×100 wherein CX represents the volume of tumor at day X for the control group when the tumor volume at the first day of the administration was presumed to be 1; and TX represents the tumor volume for test compound administration groups.

human KDR = molecular target: T1, human KDR (Homo sapiens, UniProt P35968); experiment: Inhibitory activity against KDR phosphorylation by ELISA (VEGF-stimulated NIH 3T3 cells expressing human KDR); assay type: cell-based; conditions: VEGF 100 ng/ml, compound 1 hr, read-out: IC50 (inhibition of KDR phosphorylation)
T1 construct: expressed in transfected cells; host or cells: NIH 3T3 cells (mouse fibroblasts) stably expressing human KDR
T1 sequence (P35968 20-1356): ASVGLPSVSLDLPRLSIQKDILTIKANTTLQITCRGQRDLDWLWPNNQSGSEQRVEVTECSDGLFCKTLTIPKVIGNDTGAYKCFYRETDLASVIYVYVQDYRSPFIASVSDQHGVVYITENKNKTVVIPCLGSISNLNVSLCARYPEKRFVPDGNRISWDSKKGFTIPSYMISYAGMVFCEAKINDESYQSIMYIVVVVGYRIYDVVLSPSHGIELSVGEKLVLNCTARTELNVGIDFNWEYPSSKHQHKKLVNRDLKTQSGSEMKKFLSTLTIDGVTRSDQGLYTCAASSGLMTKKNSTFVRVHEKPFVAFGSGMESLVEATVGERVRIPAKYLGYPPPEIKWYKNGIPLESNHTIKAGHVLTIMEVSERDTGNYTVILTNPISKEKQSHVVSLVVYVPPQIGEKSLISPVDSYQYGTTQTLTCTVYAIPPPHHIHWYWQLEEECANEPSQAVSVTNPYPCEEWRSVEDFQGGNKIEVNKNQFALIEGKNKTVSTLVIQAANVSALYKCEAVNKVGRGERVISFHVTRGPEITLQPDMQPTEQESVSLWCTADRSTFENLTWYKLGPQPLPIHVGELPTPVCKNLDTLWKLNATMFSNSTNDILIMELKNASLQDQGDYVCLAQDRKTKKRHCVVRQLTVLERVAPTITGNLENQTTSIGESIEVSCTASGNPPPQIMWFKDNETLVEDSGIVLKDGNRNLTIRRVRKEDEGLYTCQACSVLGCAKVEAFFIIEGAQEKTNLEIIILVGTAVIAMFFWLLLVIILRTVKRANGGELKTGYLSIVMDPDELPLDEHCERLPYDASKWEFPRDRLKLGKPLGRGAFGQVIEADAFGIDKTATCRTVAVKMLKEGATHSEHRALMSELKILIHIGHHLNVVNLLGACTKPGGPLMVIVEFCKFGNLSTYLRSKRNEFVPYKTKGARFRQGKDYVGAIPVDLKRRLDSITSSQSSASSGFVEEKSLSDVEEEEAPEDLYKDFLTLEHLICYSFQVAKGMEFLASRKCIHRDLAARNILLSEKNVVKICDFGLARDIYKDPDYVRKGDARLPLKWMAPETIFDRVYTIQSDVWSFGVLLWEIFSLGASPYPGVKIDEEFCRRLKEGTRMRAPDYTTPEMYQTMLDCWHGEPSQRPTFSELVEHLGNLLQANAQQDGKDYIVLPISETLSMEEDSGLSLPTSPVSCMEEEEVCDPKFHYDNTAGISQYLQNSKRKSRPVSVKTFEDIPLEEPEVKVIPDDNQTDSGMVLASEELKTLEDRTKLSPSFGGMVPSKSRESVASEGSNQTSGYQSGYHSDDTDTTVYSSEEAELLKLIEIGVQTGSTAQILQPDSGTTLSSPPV
Procedure: The harvested cells were inoculated into wells of a collagen-type one-coat 96-well flat-bottom plate, each containing the same medium, in an amount of 1.5×10^4 per well, followed by cultivation at 37° C. overnight. The medium was then replaced by a DMEM medium containing 0.1% fetal calf serum. A solution of a test compound in dimethyl sulfoxide was added to each well, and the cultivation was continued at 37° C. for additional one hr. A human recombinant vascular endothelial growth factor (hereinafter abbreviated to “VEGF”) was added to a final concentration of 100 ng/ml, and the stimulation of cells was carried out at 37° C. for 2 min. The medium was removed, the cells were washed with phosphate buffered saline (pH 7.4), and 50 μl of a solubilization buffer (20 mM HEPES (pH 7.4), 150 mM NaCl, 0.2% Triton X-100, 10% glycerol, 5 mM sodium orthovanadylate, 5 mM disodium ethylenediaminetetraacetate, and 2 mM Na4P2O7) was then added thereto. The mixture was shaken at 4° C. for 2 hr to prepare a cell extract.
Separately, phosphate buffered saline (50 μl, pH 7.4) containing 5 μg/ml of an anti-phospho-tyrosine antibody (PY20; purchased from Transduction Laboratories) was added to a microplate for ELISA (Maxisorp; purchased from NUNC), followed by standing at 4° C. overnight to form a solid phase on the wells. After washing of the plate, 300 μl of a blocking solution was added, followed by standing at room temperature for 2 hr to perform blocking. After washing, the whole quantity of the cell extract was transferred to the wells, and the plate was then allowed to stand at 4° C. overnight. After washing, an anti-KDR antibody (purchased from Santa Cruz) was allowed to react at room temperature for one hr, and, after washing, a peroxidase-labeled anti-rabbit Ig antibody (purchased from Amersham) was allowed to react at room temperature for one hr. After washing, a chromophoric substrate for peroxidase (purchased from Sumitomo Bakelite Co., Ltd.) was added thereto to initiate a reaction. After a suitable level of color development, a reaction termination solution was added to stop the reaction, and the absorbance at 450 nm was measured with a microplate reader. The KDR phosphorylation activity for each well was determined by presuming the absorbance with the addition of VEGF and without the addition of the medicament to be 100% KDR phosphorylation activity and the absorbance without the addition of the medicament and VEGF to be 0% KDR phosphorylation activity.

[2] = system: Human pulmonary carcinoma cells (LC-6); experiment: Antitumor activity against human pulmonary carcinoma cells (LC-6) using nude rats; assay type: in vivo; conditions: LC-6 in nude rats, oral 5 mg/kg once a day for 14 days
Procedure: Human pulmonary carcinoma cells (LC-6) (obtained from Central Laboratories for Experimental Animals) were transplanted into nude rats. When the tumor volume became about 700 mm^3, the rats were grouped so that each group consisted of four rats and the average tumor volume was even among the groups. A test compound was orally administered at doses of 0.2, 0.5, 1.0, and 5.0 mg/kg to the test groups every day once a day for 14 days, while only a vehicle was administered to a control group in the manner as in the test groups. The tumor growth inhibition rate (TGIR) was calculated as follows: The tumor growth inhibition rate (TGIR)=(1−TX/CX)×100 wherein CX represents the volume of tumor at day X for the control group when the tumor volume at the first day of the administration was presumed to be 1; and TX represents the tumor volume for test compound administration groups.

IC50 (human KDR) | SMILES | inhibition in vivo at 20 mg/kg [1] | TGIR (tumor growth inhibition rate) [2] | TGIR (tumor growth inhibition rate) [1]
< 1 nM | COc1cc2ncnc(Oc3ccc(NC(=O)Nc4ncc(C)s4)c(Cl)c3)c2cc1OC [Ex. 39, N-{2-Chloro-4-[(6,7-dimethoxy-4-quinazolinyl)oxy]phenyl}-N′-(5-methyl-1,3-thiazol-2-yl)urea] | 64% | – | –
< 1 nM | COc1cc2nccc(Oc3ccc(NC(=O)Nc4nc(C)c(C)s4)c(F)c3)c2cc1OC [Ex. 23, N-{4-[(6,7-Dimethoxy-4-quinolyl)oxy]-2-fluorophenyl}-N′-(4,5-dimethyl-1,3-thiazol-2-yl)urea] | 51.7% | – | –
< 1 nM | COc1cc2ncnc(Oc3ccc(NC(=O)Nc4nccs4)c(Cl)c3)c2cc1OC [Ex. 38, N-{2-Chloro-4-[(6,7-dimethoxy-4-quinazolinyl)oxy]phenyl}-N′-(1,3-thiazol-2-yl)urea] | 92% | 78% | –
0.3 nM | COc1cc2nccc(Oc3ccc(NC(=O)Nc4nc(C)cs4)c(F)c3)c2cc1OC.Cl [Ex. 28, N-{4-[(6,7-Dimethoxy-4-quinolyl)oxy]-2-fluorophenyl}-N′-(4-methyl-1,3-thiazol-2-yl)urea hydrochloride] | 66.3% | 59% | –
< 1 nM | COc1cc2nccc(Oc3ccc(NC(=O)Nc4nc(C)cs4)c(Cl)c3)c2cc1OC [Ex. 22, N-{2-Chloro-4-[(6,7-dimethoxy-4-quinolyl)oxy]phenyl}-N′-(4-methyl-1,3-thiazol-2-yl)urea] | 43.8% | – | –
36 nM | COc1cc2nccc(Oc3ccc(NC(=O)Nc4nnc(C)s4)c(F)c3)c2cc1OC [Ex. 58, N-{4-[(6,7-Dimethoxy-4-quinolyl)oxy]-2-fluorophenyl}-N′-(5-methyl-1,3,4-thiadiazol-2-yl)urea] | 13.4% | – | –
1 nM | COc1cc2nccc(Oc3ccc(NC(=O)Nc4nc(C)c(C)s4)c(Cl)c3)c2cc1OC [Ex. 24, N-{2-Chloro-4-[(6,7-dimethoxy-4-quinolyl)oxy]phenyl}-N′-(4,5-dimethyl-1,3-thiazol-2-yl)urea] | 39.8% | – | –
0.2 nM | COc1cc2nccc(Oc3ccc(NC(=O)Nc4cc(C)on4)c(F)c3)c2cc1OC [Ex. 9, N-{4-[(6,7-Dimethoxy-4-quinolyl)oxy]-2-fluorophenyl}-N′-(5-methyl-3-isoxazolyl)urea] | 63.5% | – | –
1.9 nM | COc1cc2nccc(Oc3ccc(NC(=O)Nc4nc(C)c(C)s4)cc3Cl)c2cc1OC [Ex. 25, N-{3-Chloro-4-[(6,7-dimethoxy-4-quinolyl)oxy]phenyl}-N′-(4,5-dimethyl-1,3-thiazol-2-yl)urea] | 18.8% | – | –
< 1 nM | COc1cc2ncnc(Oc3ccc(NC(=O)Nc4nc(C)c(C)s4)c(Cl)c3)c2cc1OC [Ex. 40, N-{2-Chloro-4-[(6,7-dimethoxy-4-quinazolinyl)oxy]phenyl}-N′-(4,5-dimethyl-1,3-thiazol-2-yl)urea] | 34.2% | – | –
13 nM | COc1cc2nccc(Oc3ccc(NC(=O)Nc4nnc(C(F)(F)F)s4)cc3F)c2cc1OC [Ex. 52, N-{4-[(6,7-Dimethoxy-4-quinolyl)oxy]-3-fluorophenyl}-N′-[5-(trifluoromethyl)-1,3,4-thiadiazol-2-yl]urea] | 20.7% | – | –
49.4 nM | CCOC(=O)Cc1csc(NC(=O)Nc2ccc(Oc3ccnc4cc(OC)c(OC)cc34)cc2F)n1 [Ex. 29, Ethyl 2-{2-[({4-[(6,7-dimethoxy-4-quinolyl)oxy]-2-fluoroanilino}carbonyl)amino]-1,3-thiazol-4-yl}acetate] | 66.1% | – | –
3.7 nM | COc1cc2nccc(Oc3ccc(NC(=O)Nc4nnc(C(F)(F)F)s4)c(F)c3)c2cc1OC [Ex. 51, N-{4-[(6,7-Dimethoxy-4-quinolyl)oxy]-2-fluorophenyl}-N′-[5-(trifluoromethyl)-1,3,4-thiadiazol-2-yl]urea] | 45.6% | – | –
< 1 nM | COc1cc2nccc(Oc3ccc(NC(=O)Nc4cc(C)no4)c(Cl)c3)c2cc1OC [Ex. 5, N-{2-Cloro-4-[(6,7-dimethoxy-4-quinolyl)oxy]phenyl}-N′-(3-methyl-5-isoxazolyl)urea] | – | – | 29.5%
< 1 nM | COc1cc2nccc(Oc3ccc(NC(=O)Nc4ccon4)cc3F)c2cc1OC [Ex. 3, N-{4-[(6,7-Dimethoxy-4-quinolyl)oxy]-3-fluorophenyl}-N′-(3-isoxazolyl)urea] | 39.5% | – | –
0.3 nM | COc1cc2nccc(Oc3ccc(NC(=O)Nc4nccs4)c(F)c3)c2cc1OC.Cl [Ex. 27, N-{4-[(6,7-Dimethoxy-4-quinolyl)oxy]-2-fluorophenyl}-N′-(1,3-thiazol-2-yl)urea hydrochloride] | – | 82% | –
0.4 nM | COc1cc2nccc(Oc3ccc(NC(=O)Nc4ncc(C)s4)c(F)c3)c2cc1OC [Ex. 21, N-{4-[(6,7-Dimethoxy-4-quinolyl)oxy]-2-fluorophenyl}-N′-(5-methyl-1.3-thiazol-2-yl)urea hydrochloride] | 66.6% | – | –
1.2 nM | COc1cc2nccc(Oc3ccc(NC(=O)Nc4nnc(C(F)(F)F)s4)c(C)c3C)c2cc1OC [Ex. 53, N-{4-[(6,7-Dimethoxy-4-quinolyl)oxy]-2,3-dimethylphenyl}-N′-[5-(trifluoromethyl)-1,3,4-thiadiazol-2-yl]urea] | 14.4% | – | –
4.1 nM | COc1cc2nccc(Oc3cc(C)c(NC(=O)Nc4nnc(C5CC5)s4)cc3C)c2cc1OC [Ex. 69, N-(5-Cyclopropyl-1,3,4-thiadiazol-2-yl)-N′-{4-[(6,7-dimethoxy-4-quinolyl)oxy]-2,5-dimethylphenyl}-urea] | 23.3% | – | –
6.3 nM | COc1cc2nccc(Oc3ccc(NC(=O)Nc4nnc(C(F)(F)F)s4)cc3)c2cc1OC [Ex. 50, N-{4-[(6,7-Dimethoxy-4-quinolyl)oxy]phenyl}-N′-[5-(trifluoromethyl)-1,3,4-thiadiazol-2-yl]urea] | 11.9% | – | –
